# Like-named read-outs stand apart in the source and are kept apart here.
# T1: ASM (Mus musculus, UniProt Q04519)
# T1 sequence (Q04519 45-627): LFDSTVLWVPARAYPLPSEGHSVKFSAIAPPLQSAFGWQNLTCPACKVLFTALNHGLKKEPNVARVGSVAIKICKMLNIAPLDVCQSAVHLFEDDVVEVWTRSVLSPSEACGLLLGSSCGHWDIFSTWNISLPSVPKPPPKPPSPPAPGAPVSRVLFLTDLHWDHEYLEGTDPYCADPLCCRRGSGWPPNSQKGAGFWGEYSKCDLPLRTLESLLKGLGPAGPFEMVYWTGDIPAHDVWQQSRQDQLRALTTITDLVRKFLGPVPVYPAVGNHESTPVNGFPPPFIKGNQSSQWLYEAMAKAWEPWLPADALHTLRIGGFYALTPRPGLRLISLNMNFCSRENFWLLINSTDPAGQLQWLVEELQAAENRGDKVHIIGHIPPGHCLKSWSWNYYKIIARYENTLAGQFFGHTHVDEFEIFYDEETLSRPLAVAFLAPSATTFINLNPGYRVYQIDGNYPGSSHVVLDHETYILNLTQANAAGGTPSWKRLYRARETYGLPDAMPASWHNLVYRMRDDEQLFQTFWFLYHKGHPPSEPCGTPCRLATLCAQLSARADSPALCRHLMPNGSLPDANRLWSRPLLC
# B1: rhASM: recombinant human acid sphingomyelinase (protein, UniProt P17405 47-631, looked up)
# Sphingomyelin …: LALSDSRVLWAPAEAHPLSPQGHPARLHRIVPRLRDVFGWGNLTCPICKGLFTAINLGLKKEPNVARVGSVAIKLCNLLKIAPPAVCQSIVHLFEDDMVEVWRRSVLSPSEACGLLLGSTCGHWDIFSSWNISLPTVPKPPPKPPSPPAPGAPVSRILFLTDLHWDHDYLEGTDPDCADPLCCRRGSGLPPASRPGAGYWGEYSKCDLPLRTLESLLSGLGPAGPFDMVYWTGDIPAHDVWHQTRQDQLRALTTVTALVRKFLGPVPVYPAVGNHESTPVNSFPPPFIEGNHSSRWLYEAMAKAWEPWLPAEALRTLRIGGFYALSPYPGLRLISLNMNFCSRENFWLLINSTDPAGQLQWLVGELQAAEDRGDKVHIIGHIPPGHCLKSWSWNYYRIVARYENTLAAQFFGHTHVDEFEVFYDEETLSRPLAVAFLAPSATTYIGLNPGYRVYQIDGNYSGSSHVVLDHETYILNLTQANIPGAIPHWQLLYRARETYGLPNTLPTAWHNLVYRMRGDMQLFQTFWFLYHKGHPPSEPCGTPCRLATLCAQLSARADSPALCRHLMPDGSLPEAQSLWPRPLFC
# Assays:
# [1] = system: cultured wt neurons; assay: Cell viability MTT assay in cultured wt neurons; type: cell-based, mouse; conditions: for neuronal death upon SM16:0 addition in the presence of acid and neutral sphingomyelinase inhibitors (MTT): wt neurons, SM16:0 plus desipramine or GW4869
# Experimental: Cell viability was evaluated using the MTT (methylthiazolyldiphenyltetrazoliumbromide, Sigma) assay. Briefly, 3×10^4 neurons were plated in 96-well plates coated with poly-L-lysine (0.1 mg/ml). At DIV14 1 mM MTT was added to the wells and incubated for 4 h. Then, the supernatant was discarded, and […] DMSO was added to the wells. The absorbance was measured at 570 nm using a microplate reader (FLUOstar Optima, BMG Labtech). Cells treated with DMSO were used as a control.
# [2] = system: Cortical neurons from wt mice; assay: LC/MS quantification of SM in cultured wt neurons incubated with SM species; type: cell-based, mouse; conditions: for increase of total SM levels: wt cortical neurons cultured 48 hr with 40 μM; for relative abundance of the added SM species, of the total SM: wt cortical neurons, 48 hr, 40 μM
# Experimental: Sample analysis was performed in an Acquity ultraperformance liquid chromatography (UPLC) system (Waters, USA) connected to a time-of-flight (TOF; LCT Premier XE) detector controlled with Waters/Micromass MassLynx software.
# A study was done to determine the impact of the different increments of individual SM species in ASMko mice and cells on their specific accumulation in neurons. Cortical neurons from wt mice were cultured for 48 hr with 40 μM of either total SM from bovine brain (SMb, containing similar SM species proportions than total SM from mouse brain); or individual SM16:0; SM18:0 or SM24:1. […] LC/MS quantification assessed the effect of each treatment on the relative abundance of the added SM species. Incubation with SM16:0 and SM18:0 drastically raised the relative abundance of each of these species to 88% and 82% of the total (FIG. 2B). Incubation with SM24:1 increased the prevalence of this species to 30%, while addition of SMb reduced the relative abundance of SM18:0 and SM16:0 by 4% and 15%, respectively, while increased that of SM24:1 by 8% (FIG. 2B).
# [3] = system: cultured wt neurons; assay: pSM16:0 co-localization with subcellular markers (Mander's coefficient); type: cell-based, mouse
# Experimental: Cultured neurons at 14 DIV were fixed in 4% PFA 0.12M sucrose and incubated overnight with primary antibodies and subsequently for 1 h with Alexa 488- or Alexa 555-conjugated secondary antibodies. Images were taken using a confocal microscope LSM710 (Zeiss). The Mander's coefficient for pSM 16:0 co-localization with Thy1; PSD95; TOM20; EEA1; LAMP1; GM130 was determined by using the JACOP plugin. Mouse brains were dissected, fixed in 4% PFA 0.12M sucrose, and cryoprotected for 24 h in 30% sucrose phosphate buffer saline. The tissue was then frozen in Tissue-Tek optimal cutting temperature compound (Sakura Finetek, Torrance, CA, USA), and 40-μm sagittal sections were obtained with a cryostat (CM 1950 Ag Protect freezing: Leica, Solms, Germany). The sections were incubated overnight at 4° C. with the primary antibodies and then with the corresponding Alexa-conjugated secondary antibodies. Finally, the sections were incubated for 10 min with DAPI (Merck), washed, and mounted with ProLong Gold Antifade (Thermo Fisher). Images were obtained on a confocal LSM710 microscope (Zeiss) and quantified using the Fiji software.
# Cultured neurons were treated with 40 μM propargyl SM (pSM 16:0) (Merck; #860711P) for 48 hours at DIV12. After immunofluorescence protocol, explained above, click reaction was performed for the attachment of fluorescent reporter (Sulfo-Cy3-Azide; Jena Biosciences; #CLK-AZ119-1) to pSM 16:0.
# The surprising effects of SM16:0 on lysosomes compared to other SM species supported a hypothesis that this lipid targets these organelles. To explore this possibility, we took advantage of the existence of the analogue propargyl SM16:0 (pSM16:0), which is linked to an alkyne group and can be traced by click chemistry and fluorescence microscopy. We added pSM16:0 for 48 hours to cultured wt neurons and performed double immunofluorescence with markers of different cellular compartments.
# [4] = system: wt primary cultured neurons; conditions: not told
# Experimental: Lysotracker Red DND99 (Thermo Fisher Scientific) was added to wt primary cultured neurons at 1 μM and incubated for 20 min at 37° C. Cells were then fixed in 4% PFA and mounted using Prolong Gold Antifade (Invitrogen). Images were taken on a confocal LSM710 microscope (Zeiss).
# To investigate the effect of the different SM species in these organelles, several lysosomal-related parameters were measured. To analyze lysosomal permeabilization, the lysotracker red dye, which fluoresces in acidic environments was utilized.
# [5] = biological target: T1, ASM; assay: Enzymatic assay of SMb or SM16:0 metabolized by ASM activity; type: biochemical; conditions: fluorescence per nmol metabolized, slope analysis
# Experimental: SM levels were measured according to protocols modified from (Hojati and Jiang, 2006). Lipid extracts were dried in the presence of Thesit, and SM was converted into peroxide by incubation with sphingomyelinase (Smase C from Merck; #S9396 or ASM from Sino Biological; #50749-M08B), alkaline phosphatase, and choline oxidase. Peroxide was measured fluorimetrically in the presence of peroxidase and homovanillic acid (Van Veldhoven et al., 1997).
# [6] = system: cultured wt neurons; assay: LAMP1 surface staining in non-permeabilized neurons (lysosomal exocytosis); type: cell-based, mouse
# Experimental: ASMko and wt cultured neurons at 14DIV were washed with PBS and fixed with 2% PFA in PBS and 0.12 M sucrose for 8 min. Immunofluorescence was performed using a conventional protocol in the absence of detergent to avoid cell permeabilization.
# [7] = system: wt neurons; conditions: cultured neurons
# Experimental: To assess reactive oxygen species (ROS), cultured neurons were incubated for 20 min with dihydrorhodamine 123 (10 μM, DHR: Molecular Probes, Carlsbad, CA, USA). The fluorescence product of DHR, rhodamine-123, was detected at excitation and emission wavelengths of 500 and 536 nm, respectively. Images of cultured neurons were captured on a confocal microscope (LSM710; Zeiss).
# Since high levels of SM also can induce oxidative stress, reactive oxygen species (ROS) was evaluated by dihydrorhodamine 123 (DHR) staining in wt neurons incubated with the different SM species.
# [8] = system: ASM knock-out mice; assay: Lipidomic analysis of brain, liver and plasma of ASM knock-out mice after i.p. rhASM; type: in vivo, mouse
# Experimental: Mouse brain and liver samples were homogenized in water (1 g wet tissue/4 mL). SM was extracted from 50 μL of homogenate or 50 μL of plasma in the presence of SM (17:0) as internal standard using Bligh-Dyer lipid extraction (Bligh and Dyer, 1959). Sample analysis was performed in a Shimadzu 20AD HPLC system coupled to a 6500QTRAP+ mass spectrometer (AB Sciex, Framingham, MA) operated in positive multiple reaction monitoring mode. Data processing was conducted with Analyst 1.6.3 (AB Sciex). Data were reported as the peak area ratios of the analytes in sample to the internal standard.
# To identify potential biomarkers of brain pathology in ASMD subjects a study was conducted in ASM knock-out mice. In brief, ASM knock-out mice received an i.p. injection of rhASM at 1 mg/kg every other day for 14 days. Results were compared to previous lipidomic analysis done on WT/ASMko mice at 2, 4, and 6 months.
# Lipidomic analysis were completed on the brain, liver, and plasma of the treated mice. Analyzed lipids comprised: SM, LSM, SM OH, and m/z 805 (a phosphocholine compound). Total SM levels post i.p. rhASM injection are shown in FIG. 13A and below at Table 3.
# [9] = 48 hours, wt neurons, Mander's coefficient
# [10] = Liver, i.p. 1 mg/kg every other day for 14 days
# [11] = Plasma, i.p. 1 mg/kg every other day for 14 days
molecule,measurement,setting,value
"CCCCCCCCCCCCC/C=C/[C@@H](O)[C@@H](N)COP(=O)([O-])OCC[N+](C)(C)C [LysoSM, lyso-sphingomyelin]",deleterious effects on cultured neurons (MTT viability),[1]; addition to cultured neurons,did not find deleterious effects
"CCCCCCCCCCCCC/C=C/[C@@H](O)[C@H](COP(=O)([O-])OCC[N+](C)(C)C)NC(=O)CCCCCCCCCCCCCCCCC [SM18:0, sphingomyelin 18:0]",increase of total SM levels,[2],3.5 fold
same,"relative abundance of the added SM species, of the total SM",[2],82%
same,reduction of neuronal survival / cell death (MTT),"[1]; mouse, cultured neurons",25%
propargyl SM16:0 [pSM16:0],co-localization with early endosome marker EEA1,[3]; [9],low degree of co-localization
same,co-localization with mitochondrial marker TOM20,[3]; [9],low degree of co-localization
same,co-localization with plasma membrane marker Thy-1,[3]; [9],low degree of co-localization
same,co-localization with synaptic marker PSD95,[3]; [9],low degree of co-localization
same,colocalization with Golgi apparatus marker GM130,[3]; [9],high colocalization
same,colocalization with endolysosomal marker LAMP1,[3]; [9],high colocalization
sphingomyelin 24:1 [SM24:1],increase of total SM levels,[2],not significant
same,"relative abundance of the added SM species, of the total SM",[2],30%
same,reduction of neuronal survival / cell death (MTT),[1],no deleterious effects
"CCCCCCCCCCCCC/C=C/[C@@H](O)[C@H](COP(=O)([O-])OCC[N+](C)(C)C)NC(=O)CCCCCCCCCCCCCCC [SM16:0, sphingomyelin 16:0]",lysosomal permeabilization (change of Lysotracker staining from dotty to diffuse cytosolic pattern),[4],indicative of lysosomal permeabilization
same,substrate preference of ASM (SM16:0 vs SMb),[5],ASM has a preference to degrade SM16:0
same,increase of total SM levels,[2],6.6 fold
same,"relative abundance of the added SM species, of the total SM",[2],88%
same,reduction of neuronal survival / cell death (MTT),"[1]; mouse, cultured neurons",50%
same,neuronal death upon SM16:0 addition in the presence of acid and neutral sphingomyelinase inhibitors (MTT),[1],induces cell death
same,lysosomal exocytosis (surface staining of LAMP1),[6],induced lysosomal exocytosis
same,accumulation in lysosomes (pSM16:0 colocalization with Lamp1),[3]; wt neurons treated with ASM inhibitor desipramine,accumulates in lysosomes
same,elevation in ROS levels (DHR staining),[7],1.6 fold
Cl.Cl.O=C(/C=C/c1ccc(/C=C/C(=O)Nc2ccc(C3=NCCN3)cc2)cc1)Nc1ccc(C2=NCCN2)cc1 [GW4869],neuronal death upon SM16:0 addition in the presence of acid and neutral sphingomyelinase inhibitors (MTT),[1],not prevented
B1,SM 16:0 level decrease after i.p. rhASM injection,[8]; Brain,does not change
same,"Total LSM levels, % Decrease with rhASM injection","[8]; Brain, i.p. 1 mg/kg every other day for 14 days",does not change
same,SM 16:0 level decrease after i.p. rhASM injection,[8]; Liver,15%
same,"Total SM levels, % Decrease with rhASM injection",[8]; [10],22%
same,"Total m/z 805 levels, % Decrease with rhASM injection",[8]; [10],70%
same,SM 16:0 level decrease after i.p. rhASM injection,[8]; Plasma,35%
same,"Total LSM levels, % Decrease with rhASM injection",[8]; [11],70%
same,"Total SM levels, % Decrease with rhASM injection",[8]; [11],31%
same,SM OH levels after i.p. rhASM injection,"[8]; brain, liver, plasma",reduction in all samples tested
same,"m/z 805 levels after rhASM injections, across tissues","[8]; brain, liver, plasma",decreases only in the liver
